Data on 1 substance can be found in patent US5726156A, “Cytokine regulatory agents and methods of use in pathologies and conditions associated with altered cytokine levels” (Trega Biosciences, Inc., priority 1995, dated 1998).

Experiment [1] relates to IL-1β-induced hyperalgesia. As to the kind of experiment: IL-1β-induced hyperalgesia, paw pressure test. It counts as in vivo, rats. As to conditions: IP 20 min before IL-1β intraplantar; 2 hr after IL-1. On the set-up: dose or concentration left out as unconfirmed. As for the experimental part: These experiments were performed using a modification of the methods described by Poole etal., Br. J. Pharmacol. 106:489-492 (1992); Foilenfant et al., Br. J. Pharmacol. 98:41-43 (1989); and Randall and Sellito, Arch. Internatl. Pharmacodyn. 111:409-419 (1957), each of which is incorporated herein by reference. Adult male Sprague-Dawley rats (175-275 g) were tested for hyperalgesia by a paw pressure technique using variable pressure instrumentation (IITC Life Sciences; Woodland Hills, Calif.). Rats were acclimated to the housing environment and were handled for three days prior to beginning a training session. On the day before the hyperalgesia experiments was to begin, each rat was placed into a sock and two variable paw pressure tests were performed 15 min apart. […] Approximately 5-10% of the rats were non-responders and were eliminated from further experiments.
Animals that responded to the paw pressure were pretreated by IP injection of various concentrations of EX-2 in a volume of 1 ml/kg (treated) or saline, alone (control). After 20 min, 100 μl of IL-1β (1U/100 μl) was administered to rats via intra plantar injection. Two hr after IL-1 administration, rats were subjected to two additional paw pressure tests and the increase in mm Hg of pressure that could be applied to the EX-2-treated rats as compared to the control rats was determined.

The test system of experiment [2] is Interleukin-6 (IL-6). In words: Reduction of LPS-induced IL-6 levels in mice. It counts as in vivo. As to conditions: 300 μg/mouse; LPS treated Balb/c mice. How it is done: Balb/c mice were grouped and treated as described in Example III, above. Blood samples were obtained from the orbital sinus at various times up to six hr and serum was collected and diluted as described above. A 100 μl aliquot was assayed for IL-6 levels using an IL-6-specific ELISA by a modification of the method of Starnes etal., J. Immunol. 145:4185-4194 (1990), which is incorporated herein by reference.
The mean (+/- SEM) IL-6 level in six mice from each group was determined and the percent reduction in IL-6 was calculated.

Experiment [3] concerns LPS-induced PMN infiltration in lungs. As to the kind of experiment: Adult respiratory distress syndrome: LPS-induced PMN count in broncho-alveolar lavage. It counts as in vivo, rats. The settings on record: 100 μg/kg IP; broncho-alveolar lavage 6 hr after intratracheal LPS. How it is done:
These experiments were performed using a modification of the methods described by Ulich et al., Am. J. Pathol. 141:61-68 (1992) and by Wheelden et al., Lab. Animals 26:29-37 (1992), each of which is incorporated herein by reference. Male Harlan Sprague-Dawley rats were anesthetized using a mixture of 70 mg/kg ketamine and 6 mg/kg rompun injected IP. A 2-3 cm incision was made in the neck of each anesthetized rat and its trachea was exposed by blunt dissection of the surrounding soft tissue. The rats were suspended on a near vertical slab and intratracheal injections were performed by inserting into the exposed trachea, at a point 1 cm posterior to the larynx, a 25G×1/2 inch needle attached to a 1 cc syringe.
Each rat received 0.5 ml/kg of saline or 0.5 ml/kg of 10 mg/ml (5 mg/kg) LPS endotoxin via slow intratracheal administration. Immediately following administration of the LPS endotoxin, rats were injected IP with 1 ml/kg of either saline (control) or saline containing various concentrations of EX-2 (treated). The rats were maintained in the elevated position for 1-2 min to facilitate distribution of the LPS and saline into the lung. The incisions were closed and the rats were allowed to recover. […]
The total polymorphonuclear leukocytes (PMN; neutrophits) in the broncho-alveolar lavage fluid were counted in the EX-2-treated rats and compared with the number in the control rats.

The test system of experiment [4] is inducible nitric oxide synthase (iNOS). As to the kind of experiment: Inducible nitric oxide synthase (iNOS), cGMP accumulation in rat aorta smooth muscle cells. It counts as cell-based. The settings on record: RASMC induced with LPS, IL-1β or TNF-α; 0.1 or 1 μM EX-2. How it is done: Rat aorta smooth muscle cells (RASMC) were isolated from male rats (325-350 g) using the previously published procedures of Gelsterfer et al., Circ. Res. 62:749-756 (1988), which is incorporated herein by reference. Cells were positively identified as smooth muscle cells by indirect immunofluorescent staining for anti-α-actin, using a mouse anti-α-actin antibody and anti-mouse IgG FITC conjugate. Cells were grown in T-75 tissue culture flasks (Corning Delbelco's Glass, Inc.; Corning, NY) in 50% F12 and 50% Delbelco's Modified Eagle Medium (DMEM) supplemented with 10% bovine serum, 0.2 g/1 L-glutamine, penicillin (100 U/ml) and streptomycin (0.1 mg/ml).
Cells between passages 1-5 were pretreated with one of the following: vehicle, LPS (1 μg/ml), IL-1β (10 U/ml), or TNF-α (100 U/ml) for 6 hr. […] Accumulation of cGMP was determined following exposure to 0.3 mM 3-isobutyl-1-methyl xanthine (IBMX in the presence or absence of 1 mM L-arginine. Medium was then rapidly aspirated and 500 μl of 0.1N HCl was added to each well to stop the reactions and extract cGMP. Thirty min later, the HC1 extract was collected and cell remnants removed from the wells by adding hot 1.0N NaOH and scraping the well with a rubber policeman. The HCl extract was analyzed for cGMP by RIA and the NaOH-solubilized cell remnants were used for protein determination. […]

As for “Ac-Nle-Gln-His-(D)Phe-Arg-(D)Trp-Gly-NH2 [EX-2]”, in experiment [1], the “Reduction in IL-1-induced Hyperalgesia (increase in tolerated paw pressure)” value was 125%. The “Reduction in IL-6 levels” value in experiment [2] is on record as 60%. In addition, the “Reduction in LPS-induced PMN Count” value in experiment [3] stood at 58%. Also, the “% Reduction of induced increase, iNOS, cGMP (pmol/100 mg/15 min)” value in experiment [4] is listed as 60%.
